Legend:
PPARα = target: T1, PPARα (Homo sapiens, UniProt Q07869); test: Radioligand binding assay (SPA), PPARα receptor binding; settings: GST-PPARα-LBD fusion protein, scintillation proximity counting
T1 construct: PPARα (aa 167 to 469); made in house; host or cells: E. coli BL21(pLysS)
T1 sequence (Q07869 167-468 limits assumed): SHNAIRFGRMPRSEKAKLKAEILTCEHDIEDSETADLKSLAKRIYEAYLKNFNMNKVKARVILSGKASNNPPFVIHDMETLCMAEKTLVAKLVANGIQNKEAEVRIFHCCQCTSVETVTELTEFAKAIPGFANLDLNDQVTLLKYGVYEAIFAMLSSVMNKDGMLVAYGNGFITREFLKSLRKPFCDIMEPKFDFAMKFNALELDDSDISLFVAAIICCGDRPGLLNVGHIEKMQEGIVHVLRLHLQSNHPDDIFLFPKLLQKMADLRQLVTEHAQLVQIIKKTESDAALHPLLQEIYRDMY
From the text: (§1) Background information on the performed assays can be found in: Nichols J S et al. “Development of a scintillation proximity assay for peroxisome proliferator-activated receptor gamma ligand binding domain”, (1998) Anal. Biochem. 257:112–119.
(§2) Full-length cDNA clones for humans PPARδ and PPARα and mouse PPARγ were obtained by RT-PCR from human adipose and mouse liver cRNA, respectively, cloned into plasmid vectors and verified by DNA sequencing. Bacterial and mammalian expression vectors were constructed to produce glutathione-s-transferase (GST) and Gal4 DNA binding domain proteins fused to the ligand binding domains (LBD) of PPARδ (aa 139 to 442), PPARγ (aa 174 to 476) and PPARα (aa 167 to 469). To accomplish this, the portions of the cloned sequences encoding the LBDs were amplified from the full-length clones by PCR and then subcloned into the plasmid vectors. Final clones were verified by DNA sequence analysis.
(§3) Induction, expression, and purification of GST-LBD fusion proteins were performed in E. coli strain BL21(pLysS) cells by standard methods (Ref: Current Protocols in Molecular Biology, Wiley Press, edited by Ausubel et al.).
(§4) PPARα receptor binding was assayed in TKE50 (50 mM Tris-HCl, pH 8, 50 mM KCl, 2 mM EDTA, 0.1 mg/ml fatty acid-free BSA and 10 mM DTT). For each 96 well reaction an 140 ng equivalent of GST-PPARα-LBD fusion protein was bound to 10 μg SPA beads (PharmaciaAmersham) in a final volume of 50 μl by shaking. The resulting slurry was incubated for 1 h at RT and centrifuged for 2 min at 1300 g. The supernatant containing unbound protein was removed and the semidry pellet containing the receptor-coated beads was resolved in 50 μl of TKE. […] All binding assays were performed in 96 well plates and the amount of bound ligand measured on a Packard TopCount using OptiPlates (Packard). Nonspecific binding was determined in the presence of 10^−4 M unlabelled compound. […]

PPARγ = target: T2, PPARγ (Mus musculus, UniProt P37238); test: Radioligand binding assay (SPA), PPARγ receptor binding; settings: GST-PPARγ-LBD fusion protein, scintillation proximity counting
T2 construct: PPARγ (aa 174 to 476); made in house; host or cells: E. coli BL21(pLysS)
T2 sequence (P37238 174-475 isoform P37238-2): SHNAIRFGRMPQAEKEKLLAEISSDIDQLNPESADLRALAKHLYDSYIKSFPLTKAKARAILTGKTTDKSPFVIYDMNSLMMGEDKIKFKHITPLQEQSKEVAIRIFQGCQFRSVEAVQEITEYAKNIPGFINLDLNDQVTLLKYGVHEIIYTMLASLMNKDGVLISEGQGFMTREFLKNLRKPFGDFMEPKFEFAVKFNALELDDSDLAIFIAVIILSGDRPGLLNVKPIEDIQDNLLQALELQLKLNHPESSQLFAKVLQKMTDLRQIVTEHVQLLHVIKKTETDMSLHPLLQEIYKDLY
From the text: as §1, §2, §3
as §4, with “PPARγ” for “PPARα”, “GST-PPARγ-LBD” for “GST-PPARα-LBD”, “ul” for “μl”

PPARδ = target: T3, PPARδ (Homo sapiens, UniProt Q03181); test: Radioligand binding assay (SPA), PPARδ receptor binding; settings: GST-PPARδ-LBD fusion protein, scintillation proximity counting
T3 construct: PPARδ (aa 139 to 442); made in house; host or cells: E. coli BL21(pLysS)
T3 sequence (Q03181 139-441 limits assumed): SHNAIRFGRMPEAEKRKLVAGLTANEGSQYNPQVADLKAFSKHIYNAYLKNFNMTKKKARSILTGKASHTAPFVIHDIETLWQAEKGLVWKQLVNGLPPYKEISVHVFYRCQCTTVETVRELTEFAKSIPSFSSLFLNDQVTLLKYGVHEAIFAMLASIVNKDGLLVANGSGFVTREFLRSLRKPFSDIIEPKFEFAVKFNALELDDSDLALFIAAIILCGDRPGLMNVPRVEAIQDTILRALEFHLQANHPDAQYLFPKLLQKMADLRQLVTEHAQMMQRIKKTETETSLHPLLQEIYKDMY
From the text: as §1, §2, §3
PPARδ receptor binding was assayed in HNM10 (50 mM Hepes, pH 7.4, 10 mM NaCl, 5 mM MgCl2, 0.15 mg/ml fatty acid-free BSA and 15 mM DTT). For each 96 well reaction a 500 ng equivalent of GST-PPARδ-LBD fusion protein and radioligand, e.g. 20000 dpm {2-methyl-4-[4-methyl-2-(4-trifluoromethyl-phenyl)-thiazol-5-yl-ditritiomethylsulfanyl]-phenoxy}-acetic acid, was bound to 10 μg SPA beads (PharmaciaAmersham) in a final volume of 50 μl by shaking. The resulting slurry was incubated for 1 h at RT and centrifuged for 2 min at 1300 g. […] Radioligand was added and the reaction incubated at RT for 1 h and scintillation proximity counting performed in the presence of test compounds was determined. All binding assays were performed in 96 well plates and the amount of bound ligand was measured on a Packard TopCount using OptiPlates (Packard). […]

Structure (SMILES)	IC50 (PPARα)	IC50 (PPARγ)	IC50 (PPARδ)
Cc1nc(-c2ccc(C(F)(F)F)cc2)ncc1COc1ccc2c(ccn2CC(=O)O)c1 [Example 2, {5-[4-Methyl-2-(4-trifluoromethyl-phenyl)-pyrimidin-5-ylmethoxy]-indol-1-yl}-acetic acid]	1320 nM	> 10000 nM	83 nM
Cc1nc(-c2ccc(C(F)(F)F)cc2)ccc1COc1ccc2c(c1)N(CC(=O)O)CC2 [Example 6, {6-[2-Methyl-6-(4-trifluoromethyl-phenyl)-pyridin-3-ylmethoxy]-2,3-dihydro-indol-1-yl}-acetic acid]	1580 nM	> 10000 nM	17 nM
O=C(O)Cn1ccc2ccc(OCc3cnc(-c4ccc(C(F)(F)F)cc4)nc3C3CC3)cc21 [Example 7, {6-[4-Cyclopropyl-2-(4-trifluoromethyl-phenyl)-pyrimidin-5-ylmethoxy]-indol-1-yl}-acetic acid]	211 nM	> 10000 nM	1 nM
